Data reported in article PMC5537602, “TRPA1 channel mediates organophosphate-induced delayed neuropathy” (Cell Discovery, 2017).

Tests used:
[1] = biological target: T1, rTRPA1 (Rattus norvegicus, UniProt Q6RI86); assay: Whole-cell patch-clamp, HEK293 cells expressing rTRPA1; format: cell-based
T1 construct: expressed in transfected cells; host or cells: HEK293, transient
Experimental: Human embryonic kidney 293 (HEK293) cells were cultured in DMEM containing 10% (vol/vol) heat-inactivated fetal bovine serum, 100 units ml^−1 penicillin–streptomycin and 2 mM L-glutamine at 37 °C in a humidity-controlled sterile incubator with 5% CO2. All cell culture reagents were purchased from Life Technologies. HEK293 cells were transfected transiently with the corresponding plasmids using lipofectamine 2000 (Life Technologies). Transfection efficiency was monitored by co-transfecting EGFP plasmid which codes for the enhanced green fluorescent protein. Electrophysiological recordings were performed between 24 and 36 h after transfection.
(§1) Whole-cell patch-clamp recordings in DRG neurons (small diameter, […]) and HEK293 cells were operated at room temperature (23–25 °C) using EPC-10 amplifier and Patch Master Software (HEKA). […] Currents were sampled at 10 kHz and low-pass filtered at 2.9 kHz. The internal solution was as follows (in mM): 140 CsCl, 10 HEPES, 5 EGTA, 0.1 CaCl2 and 1 MgCl2, with pH adjusted to 7.2 by CsOH and osmolarity 295–300 mOsm. The calcium-free external solution contained (in mM) 140 NaCl, 5 KCl, 0.5 EGTA, 1 MgCl2, 10 Glucose and 10 HEPES, with pH adjusted to 7.4 by NaOH and osmolarity 300–310 mOsm. The 0.5 mM EGTA was replaced by 2 mM CaCl2 for the recordings in DRG neurons. TRPA1 currents development was monitored with repetitive injections of 300 ms duration voltage ramps from −100 to +100 mV every 2 s and the holding potential was set to 0 mV for 50 ms, existing in both sides of the voltage ramp. To record inward currents in DRG neurons, we conducted voltage clamp at holding membrane potential of −70 mV. Solutions were switched using a gravity-fed continuous focal perfusion system.

[2] = tested on: mice; assay: Behavioral testing of mice (paw-licking time after intraplantar injection); format: in vivo, mouse
Experimental: The chosen mice were allowed to acclimate to the experimental environment for at least 2 h before testing. Intraplantar injection of 5% AITC and 30% malathion (10 μl) was achieved using separate injectors. Spontaneous pain evoked by the compounds was assessed by measuring the time (s) the mice spent on licking. For the HC030031 groups, 200 mg kg^−1 HC030031 was intragastrically administered, and then the test was conducted after 1 h. The testing phase was divided into two parts: 0–10 min and 11–60 min.

[3] = biological target: T2, cTRPA1 (Gallus gallus, UniProt W8VTH6); assay: Whole-cell patch-clamp, HEK293 cells expressing cTRPA1; format: cell-based, chicken
T2 sequence (W8VTH6 1-1126): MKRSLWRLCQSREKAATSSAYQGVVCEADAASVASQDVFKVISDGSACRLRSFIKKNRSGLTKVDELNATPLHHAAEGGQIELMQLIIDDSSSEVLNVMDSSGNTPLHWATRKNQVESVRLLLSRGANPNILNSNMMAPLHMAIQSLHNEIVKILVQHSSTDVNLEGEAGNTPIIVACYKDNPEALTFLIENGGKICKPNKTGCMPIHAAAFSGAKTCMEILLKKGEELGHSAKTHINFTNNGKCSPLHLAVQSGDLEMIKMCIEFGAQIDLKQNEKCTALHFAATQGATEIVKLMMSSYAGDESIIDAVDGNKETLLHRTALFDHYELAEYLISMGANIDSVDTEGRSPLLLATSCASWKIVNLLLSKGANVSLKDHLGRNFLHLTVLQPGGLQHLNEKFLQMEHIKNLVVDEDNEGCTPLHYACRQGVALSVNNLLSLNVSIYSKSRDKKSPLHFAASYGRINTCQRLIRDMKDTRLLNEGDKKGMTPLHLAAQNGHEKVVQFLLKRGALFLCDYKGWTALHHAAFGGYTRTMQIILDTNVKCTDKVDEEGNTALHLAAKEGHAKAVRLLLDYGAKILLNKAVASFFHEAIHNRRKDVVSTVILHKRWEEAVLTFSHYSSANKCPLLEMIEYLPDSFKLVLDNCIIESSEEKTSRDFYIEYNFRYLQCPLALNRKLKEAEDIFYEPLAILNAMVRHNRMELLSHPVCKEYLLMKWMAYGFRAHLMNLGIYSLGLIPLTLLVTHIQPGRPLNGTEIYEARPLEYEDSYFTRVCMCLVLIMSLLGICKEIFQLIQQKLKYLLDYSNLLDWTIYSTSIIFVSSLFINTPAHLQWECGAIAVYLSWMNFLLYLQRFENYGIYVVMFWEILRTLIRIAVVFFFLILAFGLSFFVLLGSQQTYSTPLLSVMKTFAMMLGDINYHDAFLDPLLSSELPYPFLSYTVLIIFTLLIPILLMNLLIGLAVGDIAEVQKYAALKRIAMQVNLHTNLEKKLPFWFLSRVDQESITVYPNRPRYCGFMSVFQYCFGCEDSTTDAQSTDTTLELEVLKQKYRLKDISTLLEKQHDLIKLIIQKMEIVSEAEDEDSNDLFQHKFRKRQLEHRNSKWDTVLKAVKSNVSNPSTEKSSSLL
Experimental: All cell culture reagents were purchased from Life Technologies. HEK293 cells were transfected transiently with the corresponding plasmids using lipofectamine 2000 (Life Technologies). Transfection efficiency was monitored by co-transfecting EGFP plasmid which codes for the enhanced green fluorescent protein. Electrophysiological recordings were performed between 24 and 36 h after transfection.
as §1, with “The internal solution was as follows (in mM): 140 CsCl, 10 HEPES, 5 EGTA, 0.1 CaCl2 and 1 MgCl2, with pH adjusted to 7.2 by CsOH and osmolarity 295–300 mOsm.” left out

[4] = HC030031 200 mg kg−1 per oral, 1 h before test

T1 sequence (Q6RI86 whole entry): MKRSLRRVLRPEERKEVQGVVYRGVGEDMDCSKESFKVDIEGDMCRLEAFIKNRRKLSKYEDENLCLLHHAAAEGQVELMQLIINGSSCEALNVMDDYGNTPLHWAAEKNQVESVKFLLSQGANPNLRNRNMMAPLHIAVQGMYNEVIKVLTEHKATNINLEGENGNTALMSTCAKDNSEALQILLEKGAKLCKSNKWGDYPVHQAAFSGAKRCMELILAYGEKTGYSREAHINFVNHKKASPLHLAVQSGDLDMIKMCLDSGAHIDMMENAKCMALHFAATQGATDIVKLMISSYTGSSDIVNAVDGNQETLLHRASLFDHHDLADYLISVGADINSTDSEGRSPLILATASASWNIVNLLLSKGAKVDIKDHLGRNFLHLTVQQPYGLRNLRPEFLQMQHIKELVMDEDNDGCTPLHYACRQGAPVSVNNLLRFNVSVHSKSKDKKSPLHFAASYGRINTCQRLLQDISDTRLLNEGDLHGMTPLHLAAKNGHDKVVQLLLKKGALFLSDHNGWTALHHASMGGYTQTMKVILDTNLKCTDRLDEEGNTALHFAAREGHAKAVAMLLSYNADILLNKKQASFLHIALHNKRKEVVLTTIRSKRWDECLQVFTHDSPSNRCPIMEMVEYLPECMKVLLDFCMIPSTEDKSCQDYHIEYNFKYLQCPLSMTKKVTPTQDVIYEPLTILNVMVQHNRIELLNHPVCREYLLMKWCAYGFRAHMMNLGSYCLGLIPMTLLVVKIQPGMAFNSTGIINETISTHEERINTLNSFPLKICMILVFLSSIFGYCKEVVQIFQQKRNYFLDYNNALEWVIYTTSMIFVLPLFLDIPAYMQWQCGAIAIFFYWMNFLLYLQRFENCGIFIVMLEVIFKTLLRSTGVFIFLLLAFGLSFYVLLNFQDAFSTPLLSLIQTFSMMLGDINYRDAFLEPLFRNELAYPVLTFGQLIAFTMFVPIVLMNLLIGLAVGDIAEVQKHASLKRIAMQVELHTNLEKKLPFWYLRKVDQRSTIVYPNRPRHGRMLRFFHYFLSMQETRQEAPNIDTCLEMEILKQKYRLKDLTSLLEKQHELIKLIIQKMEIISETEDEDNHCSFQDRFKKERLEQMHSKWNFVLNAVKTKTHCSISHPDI

CC(C)c1ccc(NC(=O)Cn2cnc3c2c(=O)n(C)c(=O)n3C)cc1 [HC030031]
block of agonist-elicited rTRPA1 currents ([1]; 10 μM HC030031, malathion or TOCP as agonist): blocked
effect on AITC-evoked nocifensive behavior [2, 4]: suppressed
effect on malathion-evoked nociception-like behavior [2, 4]: blocked
block of malathion-elicited cTRPA1 currents ([3]; 10 μM HC030031): blocked

CCOC(=O)CC(SP(=S)(OC)OC)C(=O)OCC (stereo not drawn) [malathion, S-[1,2-bis (ethoxycarbonyl)ethyl] O, O-dimethyl phosphorodithioate]
activation of rTRPA1 whole-cell currents ([1]; 30 μM, calcium-free external solution): large activation current
nociception-like behavior in Trpa1−/− mice ([2]; Trpa1−/− mice, 30% malathion intraplantar): not observed
nocifensive behavior (paw-licking) after plantar injection ([2]; WT mice, AITC 10 μl 5%, malathion 10 μl 30%, intraplantar): nociception-like behavior
EC50 [3]: 10.8 ± 1.68 µM
activation of cTRPA1 whole-cell currents ([3]; calcium-free external solution): large activation current
